Assays:
[1] = molecular target: Prothrombin (Homo sapiens, UniProt P00734)
[2] = Inhibition of trypsin

SMILES	IC50 [1] [µM]	IC50 [2] [µg/mL]
CC1(C)CCC[C@H]2[C@H]1CC[C@@]1(C)[C@@H]2CC/C(=C\OS(=O)(=O)[O-])[C@@H]1CCc1ccoc1.[Na+]	19.6	27
CC1(C)CCC[C@H]2[C@H]1CC[C@@]1(C)[C@@H]2CC/C(=C\OS(=O)(=O)[O-])[C@@H]1CCc1ccoc1.C[N+](C)=C(N)N	47.7	23
C/C(=C\Cc1cc(O)ccc1O)CCC[C@@H](C)[C@@H](C[C@@H]1CCC[C@H]2C(C)(C)CCC[C@@]12C)OS(=O)(=O)[O-].[Na+] [HALISULPHATESODIUM]	62.6	2

— ChEMBL document CHEMBL1141805, “Isolation of 1-Methylherbipoline Salts of Halisulfate-1 and of Suvanine as Serine Protease Inhibitors from a Marine Sponge, Coscinoderma mathewsi” (J Nat Prod, 1998)
